Reference: patent US7622638B2, “Genetic manipulation of condensed tannins” (priority 2002, dated 2009)

Assays:
MtBAN = assay: Anthocyanidin reductase activity assay with recombinant MtBAN protein extract (HPLC of products); assay type: biochemical, Medicago truncatula; conditions: for conversion of flavan-3-ol into its isomer on incubation with MtBAN: in the presence of NADPH; for reduction of anthocyanidin substrate to flavan-3-ol product(s) by MtBAN: MtBAN protein extract, NADPH, Tris-HCl pH 7.0, 30° C. for 30 min, HPLC
AtBAN = AtBAN (Arabidopsis thaliana, UniProt Q9SEV0); assay type: biochemical; conditions: for conversion of flavan-3-ol into its isomer on incubation with AtBAN: in the presence of NADPH; for reduction of anthocyanidin substrate to flavan-3-ol product by AtBAN: AtBAN protein extract (4 month old frozen), NADPH as coenzyme, HPLC
Anthocyanidin reductase [1] = assay: Anthocyanidin reductase assay with desalted crude enzyme from grape fruit skin; assay type: biochemical, Vitis vinifer; conditions: 100 μM cyanidin, 1 mM NADPH, 30° C. for 30 min
Method: (§1) Lotus corniculatus, Desmodium uncinatum and Barley cv. Morex were grown in a green house. Young leaves from L. corniculatus, unexpanded leaves, and young pods as well as open flowers and flower buds from D. uncinatum, and young grains from Barley were collected. Testa of barley grains were excised and pooled together for enzyme extraction. Mature grape fruit stored at −80° C. was treated in pH 7 100 mM Tris.HCl buffer for 30 seconds for isolated the skin for enzyme extraction.
(§2) A fresh one-gram leaf sample of L. corniculatus, one-gram testa from barley, and 9 grams of grape fruit skin, as well as two grams of flowers, 3 grams of young pods and 3 grams of young unexpanded leaves from Desmodium uncinatum were ground into homogenate fine powder in liquid nitrogen. The follow buffer systems were used for enzyme extraction. Extraction buffer 1: pH7 100 mM Tris.HCl, 10% glycerol and 2 mM 1,4-dithiothreitol; Extraction buffer 2: pH8 50 mM phosphate buffer, 10% glycerol, 1.5% polyethyleneglycerol 4000 (PEG-4000), 2 mM pH 8.0 Na-DETA, 25 mM sodium ascorbate, 20 mM β-mecaptoenthanol, and 5 mM 1,4-dithiothreitol; Extraction buffer 3: pH8 100 mM Tris.HCl, 10% glycerol 1.5% polyethyleneglycerol 4000 (PEG-4000), 2 mM pH 8.0 Na-DETA, 25 mM sodium ascorbate, 80 mM β-mecaptoenthanol, and 5 mM 1,4-dithiothreitol. […]

Anthocyanidin reductase [2] = assay: Anthocyanidin reductase assay with desalted crude enzyme from barley testa tissue; assay type: biochemical, Hordeum vulgera (barley) cv. morex; conditions: 100 μM cyanidin, 1 mM NADPH, 30° C. for 30 min
Method: as §1, §2

[3] = system: Anthocyanidin reductase (ANR); assay: Anthocyanidin reductase assay with desalted crude enzyme from Desmodium uncinatum tissues; assay type: biochemical; conditions: 100 μM cyanidin, 1 mM NADPH
Method: as §1
A fresh one-gram leaf sample of L. corniculatus, one-gram testa from barley, and 9 grams of grape fruit skin, as well as two grams of flowers, 3 grams of young pods and 3 grams of young unexpanded leaves from Desmodium uncinatum were ground into homogenate fine powder in liquid nitrogen. The follow buffer systems were used for enzyme extraction. Extraction buffer 1: pH7 100 mM Tris.HCl, 10% glycerol and 2 mM 1,4-dithiothreitol; Extraction buffer 2: pH8 50 mM phosphate buffer, 10% glycerol, 1.5% polyethyleneglycerol 4000 (PEG-4000), 2 mM pH 8.0 Na-DETA, 25 mM sodium ascorbate, 20 mM β-mecaptoenthanol, and 5 mM 1,4-dithiothreitol; Extraction buffer 3: pH8 100 mM Tris.HCl, 10% glycerol 1.5% polyethyleneglycerol 4000 (PEG-4000), 2 mM pH 8.0 Na-DETA, 25 mM sodium ascorbate, 80 mM β-mecaptoenthanol, and 5 mM 1,4-dithiothreitol.
The homogenate powder of lotus leaf and barley testa tissue was suspended in 5 ml extraction buffer 1, in which 1% proteinase inhibitor (Sigma) (V/V) was added. The homogenate powder of flowers and pods from Desmodium was suspended in extraction buffer 2, also in which 1% proteinase inhibitor (Sigma) (V/V) was added. The fine powder of Desmodium leaves or grape fruit skin was respectively suspended in 6 ml or 50 ml extraction buffer 3, in which 1% proteinase inhibitor (Sigma) (V/V) is added. The homogenates were vortexed vigorously and stayed on ice for 5-10 mm, squeezed through microcloth into 50 ml tubes and then 1/5 (W/V) equilibrated Dowex 1×2 was added into collected squeezed mixture solution. […]

Anthocyanidin reductase [4] = assay: Anthocyanidin reductase assay with desalted crude enzyme from Lotus corniculatus leaves; assay type: biochemical; conditions: young leaves; 100 μM cyanidin, 1 mM NADPH, 30° C. for 30 min
Method: as §1, §2

[5] = reactions containing leucoanthocyanidins, repeated attempts

AtBAN, sequence (Q9SEV0 other isoform, or with tags, fused parts or gaps K55Q/I146L/V156I/E157D/T179K/K185E): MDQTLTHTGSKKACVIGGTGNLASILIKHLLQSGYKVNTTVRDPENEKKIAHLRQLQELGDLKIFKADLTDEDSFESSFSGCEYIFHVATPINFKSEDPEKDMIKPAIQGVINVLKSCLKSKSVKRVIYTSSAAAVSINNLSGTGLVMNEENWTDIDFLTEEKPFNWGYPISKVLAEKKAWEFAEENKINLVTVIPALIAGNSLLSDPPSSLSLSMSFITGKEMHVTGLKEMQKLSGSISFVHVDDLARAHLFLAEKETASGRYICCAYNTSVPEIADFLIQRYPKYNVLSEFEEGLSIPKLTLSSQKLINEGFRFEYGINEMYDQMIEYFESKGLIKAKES

Oc1cc(O)c2c(c1)O[C@H](c1ccc(O)c(O)c1)[C@@H](O)C2 [(+)-catechin]
conversion of flavan-3-ol into its isomer on incubation with MtBAN (MtBAN): does not produce
conversion of flavan-3-ol into its isomer on incubation with AtBAN (AtBAN): does not produce

Oc1cc(O)c2c(c1)O[C@H](c1ccc(O)c(O)c1)[C@H](O)C2 [(−) epicatechin, (−)-epicatechin]
conversion of flavan-3-ol into its isomer on incubation with MtBAN (MtBAN): does not produce
conversion of flavan-3-ol into its isomer on incubation with AtBAN (AtBAN): does not produce

NC(=O)C1=CN([C@@H]2O[C@H](COP(=O)(O)OP(=O)(O)OC[C@H]3O[C@@H](n4cnc5c(N)ncnc54)[C@H](O)[C@@H]3O)[C@@H](O)[C@H]2O)C=CC1 [NADH]
conversion with NADH relative to the level achieved with NADPH at the same concentration (MtBAN; NADH 2 mM final concentration substituted for NADPH): approximately 50%

NC(=O)C1=CN([C@@H]2O[C@H](COP(=O)(O)OP(=O)(O)OC[C@H]3O[C@@H](n4cnc5c(N)ncnc54)[C@H](OP(=O)(O)O)[C@@H]3O)[C@@H](O)[C@H]2O)C=CC1 [NADPH]
co-factor dependence of conversion of anthocyanidins to flavan-3-ols (MtBAN; NADPH omitted from the enzyme assay mixtures): NADPH-dependent

Oc1cc(O)c2cc(O)c(-c3ccc(O)c(O)c3)[o+]c2c1.[Cl-] [cyanidin, cyanidin chloride]
conversion of cyanidin by extract with NADPH (Anthocyanidin reductase [1]): producing epicatechin
conversion of cyanidin by extract with NADPH (Anthocyanidin reductase [2]): producing epicatechin
conversion of cyanidin by extract with NADPH ([3]; ANR from flowers): producing epicatechin
conversion of cyanidin by extract with NADPH ([3]; ANR from leaves): producing epicatechin
conversion of cyanidin by extract with NADPH ([3]; ANR from young pods): producing epicatechin
conversion of cyanidin by extract with NADPH (Anthocyanidin reductase [4]): producing epicatechin
reduction of anthocyanidin substrate to flavan-3-ol product(s) by MtBAN (MtBAN): reducing cyanidin to the corresponding flavan-3-ols, catechin and epicatechin
reduction of anthocyanidin substrate to flavan-3-ol product by AtBAN (AtBAN): reduction of cyanidin to epicatechin

Oc1cc(O)c2cc(O)c(-c3cc(O)c(O)c(O)c3)[o+]c2c1 [delphinidin, delphinidin chloride]
reduction of anthocyanidin substrate to flavan-3-ol product(s) by MtBAN (MtBAN): catalyzed the reduction of delphinidin into putative gallo-catechin and epi-gallocatechin
reduction of anthocyanidin substrate to flavan-3-ol product by AtBAN (AtBAN): delphinidin into gallocatechin

Oc1ccc(-c2[o+]c3cc(O)cc(O)c3cc2O)cc1 [pelargonidin, Pelargonidin chloride]
reduction of anthocyanidin substrate to flavan-3-ol product(s) by MtBAN (MtBAN): tentatively identified as epi-afzelechin
reduction of anthocyanidin substrate to flavan-3-ol product by AtBAN (AtBAN): pelargonidin into epi-alfzelechin

leucoanthocyanidins
LAR activity with recombinant MtBAN (MtBAN; [5]): no LAR activity was observed
LAR activity with recombinant AtBAN (AtBAN; [5]): no LAR activity was observed
